Test results: the supplement of paper PMC11451515

Key:
Conditions in all cases: 48 h
[1] = tested on: NOMO1; experiment: cell viability relative to DMSO control; higher = less cytotoxic
Outline: (§1)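 Viability is a per-plate percentage relative to DMSO wells, with cell-free wells as background. CellTiter-Glo One luminescence was read after 48 h at 37°C on 1536-well plates (5 μl) of NOMO1 or SEM (500 cells/well) or P12-Ichikawa (1000 cells/well) leukemia cells. The cells had been adapted for at least four passages in each medium and pin-dosed with library compounds in DMSO from 47 μM to 0.79 nM in 11 threefold steps.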

[2] = tested on: P12-Ichikawa; experiment: as above
Outline: as §1

[3] = tested on: SEM cells; experiment: as above
Outline: as §1

[4] = tested on: NOMO1; experiment: AUC of viability dose-response curve (% viability x log10 dose units); higher = less sensitive
Outline: (§2)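 Medium-adapted leukemia cells in 1536-well plates, at 500 or 1000 cells/well, were incubated for 48 h at 37°C with library compounds in DMSO at 11 threefold doses from 47 μM to 0.79 nM. CellTiter-Glo One luminescence normalised per plate to DMSO and cell-free wells was fitted with a four-parameter log-logistic model over log10 doses. Area under the curve was integrated from this fit by trapezoidal rule, with curves beyond full viability scaled and failed quality-control curves removed.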

[5] = tested on: P12-Ichikawa; experiment: as above
Outline: as §2

[6] = tested on: SEM cells; experiment: as above
Outline: as §2

CC(C)(C)Cn1c(N)nc2ccc(-c3[nH]c(C(C)(C)C)nc3-c3ccc(F)cc3)nc21
cell viability [%]
Conditions | [1] | [2] | [3]
HPLM + 10% dialyzed FBS, 0.000781 µM | 84.9 | 92.1 | 97.1
HPLM + 10% dialyzed FBS, 0.00234 µM | 84.6 | 96.3 | 94.9
HPLM + 10% dialyzed FBS, 0.00702 µM | 79.9 | 92.3 | 84.7
HPLM + 10% dialyzed FBS, 0.0211 µM | 78.4 | 96 | 87.8
HPLM + 10% dialyzed FBS, 0.0632 µM | 90.8 | 87.2 | 91.5
HPLM + 10% dialyzed FBS, 0.19 µM | 81 | 78.7 | 82.2
HPLM + 10% dialyzed FBS, 0.569 µM | 83.6 | 90.1 | 85.2
HPLM + 10% dialyzed FBS, 1.71 µM | 64.3 | 78.9 | 79.1
HPLM + 10% dialyzed FBS, 5.12 µM | 75.3 | 91.5 | 84.5
HPLM + 10% dialyzed FBS, 15.4 µM | 64.7 | 85.3 | 77.6
HPLM + 10% dialyzed FBS, 46.1 µM | 49.6 | 85.4 | 73.5
RPMI 5 mM glucose + 10% FBS, 0.000781 µM | 84.3 | 95.4 | 123
RPMI 5 mM glucose + 10% FBS, 0.00234 µM | 88.4 | 83.8 | 111
RPMI 5 mM glucose + 10% FBS, 0.00702 µM | 76.3 | 78.3 | 108
RPMI 5 mM glucose + 10% FBS, 0.0211 µM | 75.9 | 90.6 | 157
RPMI 5 mM glucose + 10% FBS, 0.0632 µM | 90.8 | 86.4 | 146
RPMI 5 mM glucose + 10% FBS, 0.19 µM | 79.9 | 94.1 | 78.1
RPMI 5 mM glucose + 10% FBS, 0.569 µM | 82.9 | 83 | 54.1
RPMI 5 mM glucose + 10% FBS, 1.71 µM | 87.2 | 81.2 | 88.5
RPMI 5 mM glucose + 10% FBS, 5.12 µM | 79.5 | 77.9 | 91.9
RPMI 5 mM glucose + 10% FBS, 15.4 µM | 83.2 | 95.5 | 15.4
RPMI 5 mM glucose + 10% FBS, 46.1 µM | 76.4 | 89.1 | 59.3
RPMI 5 mM glucose + 10% dialyzed FBS, 0.000781 µM | 85.3 | 85.8 | 102
RPMI 5 mM glucose + 10% dialyzed FBS, 0.00234 µM | 92.7 | 83.4 | 98.5
RPMI 5 mM glucose + 10% dialyzed FBS, 0.00702 µM | 93.5 | 85.4 | 79.3
RPMI 5 mM glucose + 10% dialyzed FBS, 0.0211 µM | 92.2 | 84.5 | 90.9
RPMI 5 mM glucose + 10% dialyzed FBS, 0.0632 µM | 87.7 | 86.1 | 106
RPMI 5 mM glucose + 10% dialyzed FBS, 0.19 µM | 90.3 | 89.1 | 87.9
RPMI 5 mM glucose + 10% dialyzed FBS, 0.569 µM | 73.1 | 83.6 | 90
RPMI 5 mM glucose + 10% dialyzed FBS, 1.71 µM | 73.3 | 84.1 | 87
RPMI 5 mM glucose + 10% dialyzed FBS, 5.12 µM | 92 | 77.9 | 85.3
RPMI 5 mM glucose + 10% dialyzed FBS, 15.4 µM | 81.2 | 83 | 13.4
RPMI 5 mM glucose + 10% dialyzed FBS, 46.1 µM | 71.4 | 81 | 98.2

AUC of viability dose-response curve
Conditions | [4] | [5] | [6]
HPLM + 10% dialyzed FBS | 367 | 422 | 407
RPMI 5 mM glucose + 10% FBS | 392 | 414 | 347
RPMI 5 mM glucose + 10% dialyzed FBS | 405 | 401 | 412
